Assay results reported in ChEMBL document CHEMBL2364335, “Structure-activity relationship data for chemical series of achiral agonists of the ghrelin (growth hormone secretagogue) receptor (Supplementary Bioactivity Data for publication CHEMBL1140573)”.

Biological target: Growth hormone secretagogue receptor type 1 (Homo sapiens, UniProt Q92847)
Test: SUPPLEMENTARY: Agonist activity at GSHR by FLIPR assay. Same assay as CHEMBL941945
Type: functional

Sequence of Growth hormone secretagogue receptor type 1 (Q92847 whole entry): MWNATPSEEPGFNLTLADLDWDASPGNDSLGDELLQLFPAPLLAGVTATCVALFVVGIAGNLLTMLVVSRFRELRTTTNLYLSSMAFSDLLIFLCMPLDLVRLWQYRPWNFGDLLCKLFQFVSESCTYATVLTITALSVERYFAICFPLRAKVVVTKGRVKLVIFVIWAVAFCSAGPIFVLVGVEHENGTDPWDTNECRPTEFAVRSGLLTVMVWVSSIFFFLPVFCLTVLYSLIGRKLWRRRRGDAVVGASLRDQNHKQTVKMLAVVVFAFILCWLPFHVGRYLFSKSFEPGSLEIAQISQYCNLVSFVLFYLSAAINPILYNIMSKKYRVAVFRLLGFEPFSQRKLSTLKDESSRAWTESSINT

Row | Structure (SMILES) | EC50 [µM]
1 | C[C@@H]1CN(c2ccc(F)c(NS(=O)(=O)c3ccc(-c4cccs4)c(F)c3)c2)C[C@H](C)N1 | 0.01
2 | C[C@@H]1CN(c2cccc(NS(=O)(=O)c3cccc(Cl)c3Cl)c2)C[C@H](C)N1 | 0.02
3 | Cc1cc(-c2cccs2)ccc1S(=O)(=O)Nc1cc(N2C[C@@H](C)N[C@@H](C)C2)ccc1F | 0.02
4 | COc1ccc(N2C[C@@H](C)N[C@@H](C)C2)cc1NS(=O)(=O)c1ccc(-c2cccc(C)n2)cc1 | 0.01
5 | COc1ccc(NS(=O)(=O)c2cccc3ccccc23)cc1N1C[C@@H](C)N[C@@H](C)C1 | 0.0316
6 | COc1ccc(N2C[C@@H](C)N[C@@H](C)C2)cc1NS(=O)(=O)c1ccc(-c2ccsc2)cc1 | 0.00501
7 | COc1ccc(N2C[C@@H](C)N[C@@H](C)C2)cc1NS(=O)(=O)c1ccc(-c2cccs2)s1 | 0.00398
8 | COc1ccc(NS(=O)(=O)c2ccc(-c3ccc(C)cc3)cc2)cc1N1C[C@@H](C)N[C@@H](C)C1 | 0.0794
9 | COc1ccc(NS(=O)(=O)c2ccc(-c3cccc(C)n3)cc2)cc1N1C[C@@H](C)N[C@@H](C)C1 | 0.0158
10 | Cc1ccc(N2C[C@@H](C)N[C@@H](C)C2)cc1NS(=O)(=O)c1cccc2ccccc12 | 0.02
11 | Cc1ccc(-c2ccc(S(=O)(=O)Nc3cc(N4C[C@@H](C)N[C@@H](C)C4)c[nH]c3=O)cc2F)o1 | 0.01
12 | COc1ccc(NS(=O)(=O)c2ccc(-c3c(C)cccc3C)s2)cc1N1C[C@@H](C)N[C@@H](C)C1 | 0.0251
13 | COc1ccc(NS(=O)(=O)c2ccc(Oc3ccccc3)cc2)cc1N1C[C@@H](C)N[C@@H](C)C1 | 0.126
14 | COc1ccc(N2C[C@@H](C)N[C@@H](C)C2)cc1NS(=O)(=O)c1ccc(-c2ccco2)cc1F | 0.00158
15 | COc1ccc(N2C[C@@H](C)N[C@@H](C)C2)cc1NS(=O)(=O)c1cc(C)c(-c2cccc(C)n2)s1 | 0.0126
16 | COc1ccc(NS(=O)(=O)c2ccc(-c3ccccc3)s2)cc1N1C[C@@H](C)N[C@@H](C)C1 | 0.001
17 | COc1ccc(N2C[C@@H](C)N[C@@H](C)C2)cc1NS(=O)(=O)c1cccc2cccc(Cl)c12 | 0.01
18 | C[C@@H]1CN(c2ccc(F)c(NS(=O)(=O)c3ccc(-c4ccccc4)cc3)c2)C[C@H](C)N1 | 0.0316
19 | C[C@@H]1CN(c2cccc(NS(=O)(=O)c3ccc(-n4cccn4)cc3)c2)C[C@H](C)N1 | 0.0251
20 | Cc1csc(-c2ccc(S(=O)(=O)Nc3cc(N4C[C@@H](C)N[C@@H](C)C4)ccc3C)cc2)c1 | 0.00126
21 | COc1cc(-c2ccco2)ccc1S(=O)(=O)Nc1cccc(N2C[C@@H](C)N[C@@H](C)C2)c1 | 0.02
22 | COc1ccc(NS(=O)(=O)c2ccc(-c3cccs3)s2)cc1N1C[C@@H](C)N[C@@H](C)C1 | 0.002
23 | Cc1ccc(-c2ccc(S(=O)(=O)Nc3cc(N4C[C@@H](C)N[C@@H](C)C4)ccc3O)cc2F)o1 | 0.00316
24 | COc1ccc(N2C[C@@H](C)N[C@@H](C)C2)cc1NS(=O)(=O)c1ccc(-c2ccsc2)s1 | 0.00501
25 | COCc1cccc(-c2ccc(S(=O)(=O)Nc3cc(N4C[C@@H](C)N[C@@H](C)C4)ccc3OC)cc2)c1 | 0.00631

Row | Structure (SMILES) | EC50 [µM]
26 | C[C@@H]1CN(c2ccc(Cl)c(NS(=O)(=O)c3ccc(-c4ccccc4F)s3)c2)C[C@H](C)N1 | 0.01
27 | COc1ccc(N2C[C@@H](C)N[C@@H](C)C2)cc1NS(=O)(=O)c1ccc(-c2ccccc2F)cc1 | 0.02
28 | COc1ccc(N2C[C@@H](C)N[C@@H](C)C2)cc1NS(=O)(=O)c1ccc(-c2cccc(F)c2F)cc1 | 0.0316
29 | Cc1cc(-c2ccoc2)ccc1S(=O)(=O)Nc1cc(N2C[C@@H](C)N[C@@H](C)C2)ccc1F | 0.0316
30 | COc1cc(F)c(N2C[C@@H](C)N[C@@H](C)C2)cc1NS(=O)(=O)c1ccc(-c2ccccn2)s1 | 0.02
31 | COc1ccc(N2C[C@@H](C)N[C@@H](C)C2)cc1NS(=O)(=O)c1ccc(-c2ccc(C)o2)cc1Cl | 0.000316
32 | COc1ccc(N2C[C@@H](C)N[C@@H](C)C2)cc1NS(=O)(=O)c1ccc(-c2cnccn2)cc1 | 0.0316
33 | C[C@@H]1CN(c2ccc(F)c(NS(=O)(=O)c3ccc(-c4cccs4)cc3Cl)c2)C[C@H](C)N1 | 0.00794
34 | COc1ccc(N2C[C@@H](C)N[C@@H](C)C2)cc1NS(=O)(=O)c1ccc(-c2ccccc2C)s1 | 0.0251
35 | COc1ccc(N2C[C@@H](C)N[C@@H](C)C2)cc1NS(=O)(=O)c1ccc(Cl)c(Cl)c1 | 0.0501
36 | COc1ccc(N2C[C@@H](C)N[C@@H](C)C2)cc1NS(=O)(=O)c1ccc2ccccc2c1 | 0.00794
37 | C[C@@H]1CN(c2ccc(F)c(NS(=O)(=O)c3ccc(-c4ccoc4)cc3)c2)C[C@H](C)N1 | 0.0251
38 | COc1ccc(Oc2cccc(S(=O)(=O)Nc3cc(N4C[C@@H](C)N[C@@H](C)C4)ccc3OC)c2)cc1 | 0.1
39 | COc1ccc(N2C[C@@H](C)N(C)[C@@H](C)C2)cc1NS(=O)(=O)c1ccc(-c2cccs2)cc1 | 0.0126
40 | COc1ccc(N2C[C@@H](C)N[C@@H](C)C2)cc1NS(=O)(=O)c1ccc(-c2csc(C)c2)cc1 | 0.00398
41 | COc1ccc(NS(=O)(=O)c2ccc(-c3cc(C)cs3)cc2)cc1N1C[C@@H](C)N[C@@H](C)C1 | 0.00126
42 | COc1ccc(N2C[C@@H](C)N[C@@H](C)C2)cc1NS(=O)(=O)c1ccc(-c2ccc(C)o2)cn1 | 0.00316
43 | COc1ccc(N2C[C@@H](C)N[C@@H](C)C2)cc1NS(=O)(=O)c1ccc(-c2cccc(Cl)c2)cc1 | 0.00251
44 | COc1ccc(N2C[C@@H](C)N[C@@H](C)C2)cc1NS(=O)(=O)c1ccc(-c2ccc(F)cc2F)cc1 | 0.1
45 | COc1ccc(N2C[C@@H](C)N[C@@H](C)C2)nc1NS(=O)(=O)c1ccc(-c2cc(C)cs2)cc1Cl | 0.00501
46 | COc1ccc(NS(=O)(=O)c2ccc(-c3cc(C)cs3)s2)cc1N1C[C@@H](C)N[C@@H](C)C1 | 0.000794
47 | COc1ccc(N2C[C@@H](C)N[C@@H](C)C2)cc1NS(=O)(=O)c1ccc(-c2ccc(C)s2)c(C)c1 | 0.00631
48 | COc1ccc(NS(=O)(=O)c2ccc(Br)c(C)c2)cc1N1C[C@@H](C)N[C@@H](C)C1 | 0.0398
49 | COc1ccc(N2C[C@@H](C)N[C@@H](C)C2)cc1NS(=O)(=O)c1cccc(Br)c1 | 0.158
50 | COc1cc(F)c(N2C[C@@H](C)N[C@@H](C)C2)cc1NS(=O)(=O)c1ccc(-c2cccs2)cc1 | 0.00794

Row | Structure (SMILES) | EC50 [µM]
51 | COc1ccc(NS(=O)(=O)/C=C/c2ccccc2)cc1N1C[C@@H](C)N[C@@H](C)C1 | 0.0158
52 | COc1ccc(NS(=O)(=O)c2ccc(-c3cccs3)c(F)c2)cc1N1C[C@@H](C)N[C@@H](C)C1 | 0.00316
53 | COc1ccc(N2C[C@@H](C)N[C@@H](C)C2)cc1NS(=O)(=O)c1cc(F)c(-c2ccco2)cc1F | 0.0158
54 | COc1ccc(N2C[C@@H](C)N[C@@H](C)C2)cc1NS(=O)(=O)c1sc2ccc(F)cc2c1C | 0.0316
55 | Cc1ccc(N2C[C@@H](C)N[C@@H](C)C2)cc1NS(=O)(=O)c1ccc2ccccc2c1 | 0.00501
56 | Cc1ccc(-c2ccc(S(=O)(=O)Nc3cccc(N4C[C@@H](C)N[C@@H](C)C4)n3)cc2F)o1 | 0.001
57 | C[C@@H]1CN(c2cccc(NS(=O)(=O)c3ccc(-c4cccs4)cc3)c2)C[C@H](C)N1 | 0.00631
58 | COc1ccc(NS(=O)(=O)c2ccc(-c3cnco3)s2)cc1N1C[C@@H](C)N[C@@H](C)C1 | 0.0398
59 | COc1ccc(N2C[C@@H](C)N[C@@H](C)C2)cc1NS(=O)(=O)c1csc2ccccc12 | 0.01
60 | C[C@@H]1CN(c2ccc(F)c(NS(=O)(=O)c3ccc(-c4cccs4)cc3)c2)C[C@H](C)N1 | 0.00501
61 | COc1ccc(N2C[C@@H](C)N[C@@H](C)C2)cc1NS(=O)(=O)c1ccc(-c2ccco2)nc1 | 0.0158
62 | COc1ccc(NS(=O)(=O)c2ccc(-c3ccc(F)cc3)cc2)cc1N1C[C@@H](C)N[C@@H](C)C1 | 0.02
63 | COc1ccc(NS(=O)(=O)c2cccc3cccnc23)cc1N1C[C@@H](C)N[C@@H](C)C1 | 0.398
64 | C[C@@H]1CN(c2cccc(NS(=O)(=O)c3ccc4ccccc4c3)c2)C[C@H](C)N1 | 0.0158
65 | C[C@@H]1CN(c2cccc(NS(=O)(=O)c3cccc4ccccc34)c2)C[C@H](C)N1 | 0.01
66 | Cc1ccc(-c2ccc(S(=O)(=O)Nc3cc(N4C[C@@H](C)N[C@@H](C)C4)ccn3)cc2F)o1 | 0.02
67 | COc1ccc(NS(=O)(=O)c2ccc(-c3cccs3)cc2)cc1N1C[C@@H](C)N[C@@H](C)C1 | 0.001
68 | COc1ccc(N2C[C@@H](C)N[C@@H](C)C2)cc1NS(=O)(=O)c1ccc(-c2csc(C)c2)c(F)c1 | 0.002
69 | COc1ccc(N2C[C@@H](C)N[C@@H](C)C2)cc1NS(=O)(=O)c1ccc(-c2cccc(C)n2)cc1F | 0.00794
70 | COc1ccc(NS(=O)(=O)c2ccc(-c3ccccc3C)cc2)cc1N1C[C@@H](C)N[C@@H](C)C1 | 0.1
71 | COc1ccc(N2C[C@@H](C)N[C@@H](C)C2)cc1NS(=O)(=O)c1ccc(-c2cccn2C)cc1 | 0.02
72 | COc1ccc(N2C[C@@H](C)N[C@@H](C)C2)cc1NS(=O)(=O)c1ccc(-c2cc(C)cs2)s1 | 0.002
73 | COc1ccc(N2C[C@@H](C)N[C@@H](C)C2)cc1NS(=O)(=O)c1ccc2c(c1)OCCN2C | 0.0794
